Reference: the Biogen ADME set (Fang et al. 2023)
≈ marks a conversion by molar mass, not a printed value.

Conditions: for aqueous solubility: pH 6.8

MDR1-MDCK efflux ratio | intrinsic clearance, human liver microsomes [mL/min/kg] | intrinsic clearance, rat liver microsomes [mL/min/kg] | aqueous solubility [µg/mL] | fraction unbound, human plasma | fraction unbound, rat plasma | Structure (SMILES)
0.459 | ≤ 4.74 | 50.5 | 54.5 (≈ 137 µM) |  |  | O=C(O)c1cc(/N=N/c2ccc(S(=O)(=O)Nc3ccccn3)cc2)ccc1O
0.534 | 18.2 | 364 |  |  |  | Cc1ncccc1CNc1ccc(CC#N)cc1
0.786 | ≤ 4.74 | 111 |  |  |  | CC(C)c1nnc(NCc2cc(F)cc(F)c2)o1
 |  |  | 3.88 (≈ 10.2 µM) |  |  | Cc1ccnc(NC(=O)CN(C)c2ncnc3sc4c(c23)CCC(C)C4)c1 (stereo not drawn)
 | 19.1 | 296 | 1.02 (≈ 2.39 µM) |  |  | CCN1CCN(c2ccc(NC(=O)c3ncoc3-c3ccc4ccccc4c3)cc2)CC1
 | 7.61 | 17.5 |  |  |  | CCOc1cc(-c2nnc(NC(=O)c3cccc(C(F)(F)F)c3)o2)cc(OCC)c1OCC
10.9 | ≤ 4.74 | ≤ 10.7 | 51.2 (≈ 160 µM) |  |  | CCCC(=O)NCC(=O)Nc1cnc(N2CCN(C)CC2)nc1
1.23 | ≤ 4.74 | 20.6 | 34 (≈ 123 µM) |  |  | c1ccc(Cc2nnc(NC3CCOCC3)s2)cc1
4.2 | 36.5 | 1050 | 58.3 (≈ 183 µM) |  |  | Cc1ccc(C)c2c(O)cc(CN3CC(c4ccccn4)C3)nc12
0.866 | 7.23 | 122 | 27.4 (≈ 88.2 µM) |  |  | Clc1cccc(-c2nnc(Cn3cnc4ccccc43)o2)c1
0.243 | 96.3 | 1050 | 67 (≈ 197 µM) |  |  | COc1ccccc1C(=O)NCc1nc(C)cc(N2CCCCC2)n1
0.653 | 11 | 241 | 34.1 (≈ 144 µM) |  |  | Cc1cc(C(=O)N(C)Cc2ccsc2)no1
0.857 | 126 | 602 | 12.9 (≈ 33 µM) |  |  | Cc1ccc(NC(=O)CN2CCCN(c3ccc(C(F)(F)F)cn3)CC2)cc1
0.8 | ≤ 4.74 | 122 | 55 (≈ 163 µM) |  |  | Cc1cc(Oc2ncccn2)ccc1NC(=O)c1c(C)oc(C)c1C
0.705 | ≤ 4.74 | 12.2 | 44.8 (≈ 188 µM) |  |  | CCC(=O)N(C)CC(=O)Nc1cccc(F)c1
0.642 | 121 | 255 | 57.3 (≈ 172 µM) |  |  | Cc1csc(N(C(=O)c2cc3c(C)nn(C)c3s2)C2CC2)n1
1.1 | 36 | 2890 | 37.5 (≈ 114 µM) |  |  | Cc1nc(C)c2c(C)c(C(=O)N(C)Cc3ccc(C)o3)sc2n1
0.45 | 194 | 620 | 47.2 (≈ 170 µM) |  |  | COc1ccc(CNCc2cccc3ccccc23)cc1
35.9 | 535 | 1140 | 35.8 (≈ 53.7 µM) | 0.0189 | 0.0133 | CC(C)(C=C(C#N)C(=O)N1CCC[C@@H](n2nc(-c3ccc(Oc4ccccc4)cc3F)c3c(N)ncnc32)C1)N1CCN(C2COC2)CC1
0.834 | 226 | 2510 | 16.9 (≈ 49.3 µM) |  |  | O=C(NC[C@H]1CCN(c2ccccc2)C1)N1CCc2sccc2C1
53.8 | 10.9 | 45.5 | 94.5 (≈ 191 µM) |  |  | COc1ccc(C(=O)C2CCN(CC(=O)N(Cc3nc4c(c(=O)[nH]3)COCC4)CC3CC3)CC2)cc1
 | ≤ 4.74 | 123 | 50 (≈ 153 µM) |  |  | O=C(NC1CCCCC1)N1CCc2nc3ccccn3c(=O)c2C1
0.47 | 33.5 | 354 | 30 (≈ 106 µM) |  |  | O[C@@H]1CO[C@H]2C[C@@H]1Nc1c(Cc3ccccc3)cccc12
 | 121 | 5670 |  |  |  | Brc1cnc(N2CCCN(c3ccccc3)CC2)nc1
0.338 | 27.2 | 190 |  |  |  | O=C(Nc1ccc(N2CCCC2)cn1)c1ccc(-c2cnco2)cc1
 | ≤ 4.74 | 145 |  |  |  | O=C1CCC(=O)N1Cc1nc(Cc2ccccc2)cs1
 | ≤ 4.74 | 87.1 |  |  |  | CC(C)NC(=O)CN(C)c1ccc(Cl)c(C#N)n1

MDR1-MDCK efflux ratio | intrinsic clearance, human liver microsomes [mL/min/kg] | intrinsic clearance, rat liver microsomes [mL/min/kg] | aqueous solubility [µg/mL] | fraction unbound, human plasma | fraction unbound, rat plasma | Structure (SMILES)
0.695 | 10.4 | 94.5 | 46 (≈ 182 µM) |  |  | CN(C)c1cc(CNc2ccc(C#N)cn2)ccn1
 | ≤ 4.74 | 87.1 |  |  |  | CC(C)N1CCN(CCCSc2ncc[nH]2)CC1
 | 16.1 |  |  | 1 | 0.511 | O=C(NC1CCNCC1)c1ccc2cn[nH]c2c1
 | 94.4 | 2250 | 16.9 (≈ 59.5 µM) |  |  | CN(C)c1cccc(C2CCN(c3ncccn3)CC2)n1
0.431 | 64.7 | ≤ 10.7 |  |  |  | CN(CCSc1ccc2nnnn2n1)Cc1ccccc1
0.755 | ≤ 4.74 | 21.1 |  |  |  | Cc1ncccc1NC(=O)OC(C)(C)C
5.75 | 72.5 | 327 |  | 0.00754 | 0.0188 | CC(O)(C#Cc1ccc2c(c1)N(c1nc(N)ncc1Cl)CC2)c1nccs1 (stereo not drawn)
 | 208 | 707 |  |  |  | N#Cc1nc(-c2ccccc2)oc1NCc1ccc2c(c1)OCO2
28.9 | 40.9 | 674 |  |  |  | CCN(CC(N)=O)CC(=O)N1c2ccccc2CCc2ccccc21
 | 99.6 | 319 | 9.23 (≈ 38.6 µM) |  |  | CCOc1ccc(Nc2ncccc2C#N)cc1
 |  |  | 21.8 (≈ 105 µM) |  |  | NCCOc1cccc(C(F)(F)F)n1
1.31 | 10.6 | 60.9 |  |  |  | CNc1nc(Nc2cnn([C@H]3CCN(C4COC4)C[C@@H]3F)c2Cl)ncc1C(F)(F)F
 | 240 | 3170 | 33.9 (≈ 88 µM) |  |  | O=C(C1CCCN(S(=O)(=O)c2ccccc2)C1)N1CCc2ccccc2C1 (stereo not drawn)
0.851 | 442 | 1950 | 37.1 (≈ 106 µM) |  |  | O=C(CN1CCCN(c2nccs2)CC1)Nc1cccc(Cl)c1
0.559 | ≤ 4.74 | 11.1 | 45.4 (≈ 179 µM) |  |  | Cc1cc(C(=O)Nc2cccc3ncccc23)on1
0.905 | 397 | 1270 | 36 (≈ 95.1 µM) |  |  | O=C(c1cccnc1)N1CCCC(c2cccc(-c3cccc(Cl)c3)n2)C1 (stereo not drawn)
1.1 | 27.3 | 80.2 | 38.2 (≈ 150 µM) |  |  | Cc1cc(C)cc(C(=O)Nc2c(C#N)cnn2C)c1
0.877 | 13.4 | 63.7 | 45.5 (≈ 172 µM) |  |  | N#Cc1ccc(N2CCc3c(ncn3C3CC3)C2)nc1
 | ≤ 4.74 | 43.8 |  |  |  | Cn1cc(Br)cc1C(=O)N1CCc2nn[nH]c2C1
0.661 | 234 | 2160 | 29.2 (≈ 102 µM) |  |  | CC(C)c1nc(CCn2ccnc2-c2ccoc2)cs1
0.572 | 89.3 | 605 | 40.1 (≈ 140 µM) |  |  | COc1ccc(Nc2ncnc3sccc23)c(OC)c1
0.513 | 62.7 | 272 | 42.8 (≈ 145 µM) |  |  | Cc1nc(N2CCOc3ccccc3C2)c2cnn(C)c2n1
0.142 | 10.2 | 749 | 5.51 (≈ 15.2 µM) |  |  | Fc1ccccc1-c1noc(-c2ccc(NCCc3cnccn3)nc2)n1
5.91 | 6.41 | 43.2 | 10.2 (≈ 23.6 µM) |  |  | CC(=O)N1CCC(Nc2ncnc3cc(-c4ccc(Br)cc4)sc23)CC1
0.43 | 87.6 | 615 |  |  |  | O=C1c2ccccc2C(=O)N1CCNc1ccc(F)cc1
0.769 | 62.4 | 1240 | 33 (≈ 88.4 µM) |  |  | O=C(c1ccccc1F)N1CCC[C@@H]1Cn1nnn(-c2cccs2)c1=O
 |  |  | 42.3 (≈ 94.6 µM) |  |  | O=C(CCn1cc(Br)cn1)Nc1nc2ccccc2n1CCN1CCOCC1

Structure (SMILES) | MDR1-MDCK efflux ratio | intrinsic clearance, human liver microsomes [mL/min/kg] | intrinsic clearance, rat liver microsomes [mL/min/kg] | aqueous solubility [µg/mL] | fraction unbound, human plasma | fraction unbound, rat plasma
Cc1ccnc(NC(=O)CN2CCCC2=O)c1 | 2.12 | ≤ 4.74 | ≤ 10.7 | 55.1 (≈ 236 µM) |  | 
CSc1ccc(-c2ccc3n(c2=O)C[C@H]2C[C@@H]3CN(C(=O)c3ccncc3)C2)cc1 | 44 | 54 | 357 | 37.5 (≈ 89.8 µM) |  | 
Cc1cc(CN2CCC(N(C)c3ncc(Cl)cn3)CC2)on1 | 0.58 | 16 | 127 |  |  | 
